Assay results from ChEMBL document CHEMBL3639081, “Azabicyclo compound and salt thereof” (2014).

Target: Heat shock protein HSP 90-alpha (Homo sapiens, UniProt P07900)
Test: AlphaScreen Competitive Assay: The HSP90-binding activity was measured by an AlphaScreen competitive assay system. The purified HSP90 solution was diluted with a binding buffer (50 mM Tris-HCl (pH 7.5), 150 mM NaCl, 0.1% Triton-X100, 1 mM DTT, 0.1% BSA) and added to a 384-well plate (No. 3673, Corning Incorporated) containing test substances. After reaction at room temperature for 2 hr, biotin-labeled geldanamycin was added to each reaction solution in an amount of 40 nM, followed by reaction for further 1 hr. Detection mix (20 mM HEPES-KOH (pH 7.5), 0.5% BSA, 0.04 mg/mL Nickel Chelate Acceptor beads, 0.04 mg/mL Streptavidin-coated Donor beads) (No. 6760619C, Perkin Elmer, Inc.) was added to each well in the same amount as that of the reaction solution. After reaction in a dark place at room temperature for 1 hr, the fluorescence intensity in each well was measured with a multilabel plate reader, EnVision (Perkin Elmer, Inc.).

COc1cc(C(N)=O)ccc1-n1nc(C(C)C)c2c(-n3cnc(-c4cnn(C)c4)c3)ccnc21
IC50: 90 nM
